Data: US10513513B2, “Salts of quinazoline derivative or crystals thereof, and the process for producing thereof” (Shionogi & Co., Ltd., priority 2015, dated 2019)
Where a name gives a salt, the structure may show the parent alone.

How the values were obtained:
Format in all cases: physicochemical
[1] = Stability test of crystals on heating (NMR before/after); settings: heated at 50° C. for 8 hours
Description: (Results of Stability Test)
The crystals of Compound (IIA) obtained in Example 21 were heated at 50° C. for 8 hours and measured NMR data.

[2] = Observation of hygroscopicity of isolated salt; settings: isolated solid
Description: Ethyl acetate (8 mL) was added to Compound 3 (4.12 g, 17.7 mmol), and the mixture was stirred. When 4 mol/L a solution (16 mL) of hydrochloric acid in ethyl acetate was added, white solids were precipitated. Ethyl acetate (8 mL) was added, and then the mixture was stirred for about 4 hours at room temperature.
Benzenesulfonic acid (78.57 mg) and tetrahydrofuran (0.2 mL) were stirred at 50° C., and a tetrahydrofuran (0.2 mL) solution of Compound 3 (51.54 mg, 0.222 mmol) was added dropwise. After about 20 minutes, cooling the mixture to room temperature caused solids to precipitate. Then, 0.15 mL of tetrahydrofuran was added, and the mixture was stirred at 50° C. for 10 minutes and cooled to 10° C.

[3] = Test of solubility in water for injection; settings: stirred at 37° C. for 1 hour, HPLC Method A
Description: (Test of Solubility in Water for Injection)
1. Preparation of Calibration Curve
First, 5 mg of monohydrochloride crystal Form I of Compound (I) was precisely weighed and dissolved in a mixed solution of acetonitrile:water (1:1), and thus a 500 μg/mL solution was obtained. The obtained solution was diluted with a mixed solution of acetonitrile:water (1:1) such that the concentrations of the compound were 5 and 50 μg/mL. Accordingly, a standard calibration curve was prepared according to HPLC measurement conditions (Method A). The same operation was carried out for monohydrochloride crystal Form II, monohydrochloride crystal Form V, monohydrochloride crystal Form VI, mono-p-toluenesulfonate crystal Form I, and free base crystals.
2. Preparation of Sample Solution
First, 1 mg of monohydrochloride crystal Form I of Compound (I) was precisely weighed and transferred to a vial having a volume of 4 mL. Then, 1 mL of water (water for injection) was added, and the mixture was stirred at 37° C. for 1 hour. After being stirred, this suspension was filtered, and the peak area was measured under HPLC measurement conditions (Method A) using a solution obtained by diluting the filtrate two-fold with a mixed solution of acetonitrile:water (1:1) as a sample. The concentration was calculated using the peak area and the calibration curve prepared above. The same operation was carried out for monohydrochloride crystal Form II, monohydrochloride crystal Form V, monohydrochloride crystal Form VI, mono-p-toluenesulfonate crystal Form I, and free base crystals.

[4] = Test of solubility in organic solvent; settings: stirred at 22° C. for 4 hours, supernatant, HPLC Method B; for Concentration (% by weight) in 2-Propanol: suspended in 2-propanol; for Concentration (% by weight) in Acetone: suspended in acetone; for Concentration (% by weight) in Ethyl acetate: suspended in ethyl acetate
Description: (Test of Solubility in Organic Solvent)
The monohydrochloride crystal Form I, monohydrochloride crystal Form V, and free base crystals of Compound (I) were each suspended in 2-propanol, acetone, and ethyl acetate, and stirred at 22° C. for 4 hours, and the concentrations of supernatants were measured (HPLC: Method B).

[5] = Moisture sorption-desorption isothermal measurement; settings: for Ratio of increased mass in moisture desorption isothermal measurement: ratio at 0% Target % P/P0 after desorption, 25° C.; for Ratio of increased mass (moisture sorption): mass increase at 95% Target % P/P0 relative to mass at 0% Target % P/P0, 25° C.
Source text: (Moisture Sorption-Desorption Isothermal Measurement)
Moisture sorption-desorption isothermal measurement is measuring the weight changes of a subject solid under various relative humidity conditions, and is a method for determining moisture sorption-desorption behaviors.
As a basic measurement method, the relative humidity is increased in increments of 5% or 10% based on the dry weight at 0% Target % P/P0 (relative humidity 0%), and after the weights at respective relative humidities are stabilized, the amount of adsorbed water can be obtained from the weight increased from a reference value. Similarly, it is possible to measure the amount of desorbed water by reducing the relative humidity in increments of 5% or 10% from 100% Target % P/P0.
Sorption and desorption isotherms can be obtained by plotting the weight change values at respective relative humidities. From the results, it is possible to investigate the sorption and desorption phenomena of attached moisture at respective humidities. Also, when anhydride crystals and hydrate crystals undergo mutual crystal transition due to humidity, it is possible to calculate the humidity, at which crystal transition occurs, and the amount of water of crystallization.
Since the sorption and desorption of attached water and water of crystallization are affected by the particle size, degree of crystallinity, crystal habit, and the like, the measurement results may slightly vary.
Moisture sorption-desorption isothermal measurement was performed on the crystals obtained in each Example. About 10 mg of a sample was weighed onto a sample pan, and measurement was performed. Measurement conditions are as shown below.
Device: DVS Advantage by Surface Measurement Systems Ltd.
Measurement points: from 0% Target % P/P0 to 95% Target % P/P0 in increments of 5%, then from 95% Target % P/P0 to 0% Target % P/P0 in decrements of 5% Temperature: 25° C. […]

[6] = Light exposure test (photostability); settings: for E isomer (Retention time 38 minutes), Light exposed sample: D65 lamp, total illuminance about 1.2 million lx·hr; for E isomer (Retention time 38 minutes), Light exposed sample / E isomer (Retention time 38 minutes), Dark control: HPLC Method B; for E isomer (Retention time 38 minutes), Increased amount: light exposed sample minus dark control
Source text: The photostability test is one of the methods for measuring chemical or physicochemical changes of an active pharmaceutical ingredient or a pharmaceutical preparation caused by light exposure to evaluate properties of a sample with respect to light. In the photostability test, a sample such as an active pharmaceutical ingredient or a pharmaceutical preparation is irradiated with light at a specified output for a certain period of time. Properties of the sample with respect to light can be evaluated by analyzing the impurities and analogous substances, crystal form, color difference, and the like of the sample by scientific techniques (such as high performance liquid chromatography, X-ray crystal diffraction, and colorimetry) when a specified total illuminance is reached. In order to verify that a specified amount of light exposure is attained, the amount of light exposure is managed using a radiometer or a luminometer, and a test is carried out using an actinometric system.
(Photostability Measurement)
A photostability test was performed using a photostability tester (model LTL200A5-15WCD) by Nagano Science. A D65 lamp was used as an irradiation source of light, and light was irradiated to a total illuminance of about 1.2 million 1×·hr under 4000 lx·hr conditions.
The quality evaluations of the respective crystals were carried out using HPLC (Method B).

[7] = listed as mono-p-toluenesulfonate crystal Form I
[8] = listed as Monohydrochloride form crystal VI
[9] = listed as Monohydrochloride form crystal V

Row | Compound | Concentration (% by weight) in 2-Propanol [4] | Concentration (% by weight) in Acetone [4] | Concentration (% by weight) in Ethyl acetate [4] | Ratio of increased mass in moisture desorption isothermal measurement [5] | E isomer (Retention time 38 minutes), Light exposed sample [6] | E isomer (Retention time 38 minutes), Increased amount [6] | Solubility in water for injection [3] | Ratio of increased mass (moisture sorption) [5] | E isomer (Retention time 38 minutes), Dark control [6] | further results
1 | NOC[C@H]1COCCN1 [Compound (IIA)] |  |  |  |  |  |  |  |  |  | Stability of crystals on heating (change of NMR peaks) [1]: no changes to the peaks were observed
2 | NOC[C@H]1COCCN1 [Compound (II′)] |  |  |  |  |  |  |  |  |  | Hygroscopicity (observation) [2]: absorbed moisture and deliquesced
3 | NOC[C@H]1COCCN1 [Compound (II″)] |  |  |  |  |  |  |  |  |  | Hygroscopicity (observation) [2]: highly hygroscopic
4 | CC#C/C(=N\OC[C@H]1COCCN1)c1ccc2ncnc(Nc3ccc(OCc4cccc(F)c4)c(Cl)c3)c2c1 [Free base crystal] | 0.49 % by weight | 8.1 % by weight | 3.3 % by weight | about 0.16% | 2.59 area % | 2.59 area % |  |  |  | Solubility in water for injection ([3]; listed as free base crystals): not dissolved in water for injection at all
5 | CC#C/C(=N\OC[C@H]1COCCN1)c1ccc2ncnc(Nc3ccc(OCc4cccc(F)c4)c(Cl)c3)c2c1 [Mono-p-toluenesulfonate crystal Form I] |  |  |  | about 0.12% | 32.86 area % | 32.76 area % | 26.6 µg/mL | small | 0.10 area % | Solubility in water for injection [3, 7]: high solubilities; E isomer (Retention time 38 minutes), Increased amount [6, 7]: about 33 area %
6 | CC#C/C(=N\OC[C@H]1COCCN1)c1ccc2ncnc(Nc3ccc(OCc4cccc(F)c4)c(Cl)c3)c2c1 [Monohydrochloride crystal Form II] |  |  |  | about 0.05% | 1.21 area % | −0.23 area % | 56.0 µg/mL | small | 1.44 area % | Solubility in water for injection ([3]; listed as monohydrochloride crystal Form II): high solubilities
7 | CC#C/C(=N\OC[C@H]1COCCN1)c1ccc2ncnc(Nc3ccc(OCc4cccc(F)c4)c(Cl)c3)c2c1 [Monohydrochloride crystal Form I] | 0.03 % by weight | 0.08 % by weight | 0.01 % by weight | about 0.08% | 4.41 area % | 3.78 area % | 34.5 µg/mL | small | 0.63 area % | Solubility in water for injection ([3]; listed as monohydrochloride crystal Form I): high solubilities
8 | CC#C/C(=N\OC[C@H]1COCCN1)c1ccc2ncnc(Nc3ccc(OCc4cccc(F)c4)c(Cl)c3)c2c1 [Monohydrochloride crystal Form VI] |  |  |  | about 0.06% |  |  | 12.9 µg/mL | small |  | Solubility in water for injection ([3]; listed as monohydrochloride crystal Form VI): high solubilities; E isomer (Retention time 38 minutes), Light exposed sample [6, 8]: 1.80 area %; E isomer (Retention time 38 minutes), Dark control [6, 8]: 1.16 area %; E isomer (Retention time 38 minutes), Increased amount [6, 8]: 0.64 area %
9 | CC#C/C(=N\OC[C@H]1COCCN1)c1ccc2ncnc(Nc3ccc(OCc4cccc(F)c4)c(Cl)c3)c2c1 [Monohydrochloride crystal Form V] | 0.01 % by weight | 0.02 % by weight | 0.00 % by weight | about 0.05% |  |  | 14.0 µg/mL | small |  | Solubility in water for injection ([3]; listed as monohydrochloride crystal Form V): high solubilities; E isomer (Retention time 38 minutes), Light exposed sample [6, 9]: 1.19 area %; E isomer (Retention time 38 minutes), Dark control [6, 9]: 0.13 area %; E isomer (Retention time 38 minutes), Increased amount [6, 9]: 1.06 area %
10 | CC#C/C(=N\OC[C@H]1COCCN1)c1ccc2ncnc(Nc3ccc(OCc4cccc(F)c4)c(Cl)c3)c2c1 [Monosulfate crystal] |  |  |  | about 0.13% |  |  |  |  |  | Ratio of increased mass (moisture sorption) ([5]; listed as monosulfate crystals): about 3.3%
